Reference: patent publication US20240252581A1, “COMPOSITIONS AND METHODS FOR TREATING RESPIRATORY DISTRESS” (S.I.S. SHULOV INNOVATIVE SCIENCE LTD., priority 2021, published 2024)
“And” between values parts separate entries of the source, which are not always exact repeats. Identical values can stand only once. Square brackets hold non-standard residues; d marks the D form. Peptide text beside a SMILES is read from it. * marks the point of attachment. pGlu = O=C1CC[C@@H](C(=O)O)N1; Octanoyl = CCCCCCCC(=O)*

How the values were obtained:
[1] = Oxygen saturation in mouse model of LPS-inflamed lungs (Rodent Pulse Oximeter); assay type: in vivo, Balb/C female mice; conditions: for Oxygen saturation, group mean: mean of 10 mice; for Oxygen saturation, individual mouse: single animals
Procedure: Evaluation of the effect of ZEP3Na administration via inhalation on oxygen saturation in a mouse model of inflamed lungs by the lipopolysaccharides (LPS) was performed. Oxygen saturation testing was performed at several time points on mice that have been anesthetized by isoflurane. A sensor was attached to the hind foot of the mice and the percentage of oxygen in the blood was measured using the Rodent Pulse Oximeter instrument (Kent Scientific).
Following LPS intratracheal instillation, a marked reduction in blood oxygen saturation levels was detected. ZEP3Na was then administered by inhalation at two doses 6 h and 14 h after LPS administration and the effect of ZEP3Na on blood oxygen saturation was monitored 0, 2, 6, 12, 24 and 48 hours following ZEP3Na administration. Saturation data was analyzed by ANOVA followed by Tukey-Kramer test. Significance level was defined as ∝=0.05.

[2] = Toxicity of ZEP3Na in intratracheal administration, daily for 14 days; assay type: in vivo, rats
Procedure: The toxicological effect of ZEP3Na administered intratracheally to rats was evaluated. Doses of 0.5, 1.0, and 2.5 mg ZEP3Na dissolved in saline were administered daily into the lungs for a period of 14 days. On day 15, necroscopy and histology of brain, heart, thymus, lungs, spleen, liver, kidneys, and gonads were performed. In addition, blood cell counts and chemistry parameters were counted. Also, the cell distribution (%) of the bronchial alveolar lavage fluid (BALF) was determined by FACS instrumentation for B cells, T cells, neutrophils, and macrophages.

[3] = Group 2: LPS 800 μg + ZEP3Na 10 mg by inhalation at 6 h, time point 0 h
[4] = Group 2: LPS 800 μg + ZEP3Na 10 mg by inhalation at 6 h, time point 2 h
[5] = Group 2: LPS 800 μg + ZEP3Na 10 mg by inhalation at 6 h, time point 6 h
[6] = Group 2: LPS 800 μg + ZEP3Na 10 mg by inhalation at 6 h, time point 12 h
[7] = Group 2: LPS 800 μg + ZEP3Na 10 mg by inhalation at 6 h, time point 24 h
[8] = Group 2: LPS 800 μg + ZEP3Na 10 mg by inhalation at 6 h, time point 48 h
[9] = Group 3: LPS 800 μg + ZEP3Na 10 mg by inhalation at 6 h + 14 h, time point 0 h
[10] = Group 3: LPS 800 μg + ZEP3Na 10 mg by inhalation at 6 h + 14 h, time point 2 h
[11] = Group 3: LPS 800 μg + ZEP3Na 10 mg by inhalation at 6 h + 14 h, time point 6 h
[12] = Group 3: LPS 800 μg + ZEP3Na 10 mg by inhalation at 6 h + 14 h, time point 12 h
[13] = Group 3: LPS 800 μg + ZEP3Na 10 mg by inhalation at 6 h + 14 h, time point 24 h
[14] = Group 3: LPS 800 μg + ZEP3Na 10 mg by inhalation at 6 h + 14 h, time point 48 h
[15] = Group 4: LPS 800 μg + ZEP3Na 50 mg by inhalation at 6 h, time point 0 h
[16] = Group 4: LPS 800 μg + ZEP3Na 50 mg by inhalation at 6 h, time point 2 h
[17] = Group 4: LPS 800 μg + ZEP3Na 50 mg by inhalation at 6 h, time point 6 h
[18] = Group 4: LPS 800 μg + ZEP3Na 50 mg by inhalation at 6 h, time point 12 h
[19] = Group 4: LPS 800 μg + ZEP3Na 50 mg by inhalation at 6 h, time point 24 h
[20] = Group 4: LPS 800 μg + ZEP3Na 50 mg by inhalation at 6 h, time point 48 h
[21] = Group 5: LPS 800 μg + ZEP3Na 50 mg by inhalation at 6 h + 14 h, time point 0 h
[22] = Group 5: LPS 800 μg + ZEP3Na 50 mg by inhalation at 6 h + 14 h, time point 2 h
[23] = Group 5: LPS 800 μg + ZEP3Na 50 mg by inhalation at 6 h + 14 h, time point 6 h
[24] = Group 5: LPS 800 μg + ZEP3Na 50 mg by inhalation at 6 h + 14 h, time point 12 h
[25] = Group 5: LPS 800 μg + ZEP3Na 50 mg by inhalation at 6 h + 14 h, time point 24 h
[26] = Group 5: LPS 800 μg + ZEP3Na 50 mg by inhalation at 6 h + 14 h, time point 48 h
[27] = administration by inhalation, 800 μg LPS
[28] = rats, 0.5, 1.0, and 2.5 mg intratracheally daily for 14 days

Q: What does the source list for `CCCCCCCC(=O)NCCCC[C@H](NC(=O)[C@H](Cc1c[nH]c2ccccc12)NC(=O)[C@H](CC(N)=O)NC(=O)[C@@H]1CCC(=O)N1)C(=O)O` [ZEP3Na, pGlu-Asn-Trp-Lys(Octanoyl)-ONa] ([pGlu]NWK(Octanoyl)-OH)?
A: Oxygen saturation, group mean [1, 3]: 97.2%; Oxygen saturation, individual mouse [1, 3]: 99% (4×) and 93% and 97% and 98% (2×) and 95% (2×); Oxygen saturation, group mean [1, 4]: 70.0%; Oxygen saturation, individual mouse [1, 4]: 77% and 67% and 78% (2×) and 61% and 71% and 59% and 72% and 74% and 63%; Oxygen saturation, group mean [1, 5]: 86.2%; Oxygen saturation, individual mouse [1, 5]: 81% and 88% (2×) and 87% (2×) and 91% and 82% and 84% and 85% and 89%; Oxygen saturation, group mean [1, 6]: 93.5%; Oxygen saturation, individual mouse [1, 6]: 92% (2×) and 96% and 95% (2×) and 93% and 90% and 94% (3×); Oxygen saturation, group mean [1, 7]: 89.0%; Oxygen saturation, individual mouse [1, 7]: 86% (2×) and 87% and 89% and 88% and 90% (2×) and 83% and 92% and 99%; Oxygen saturation, group mean [1, 8]: 92.9%; Oxygen saturation, individual mouse [1, 8]: 91% (5×) and 94% and 97% (3×) and 89%; Oxygen saturation, group mean [1, 9]: 96.2%; Oxygen saturation, individual mouse [1, 9]: 97% (2×) and 96% and 99% (2×) and 94% (2×) and 93% and 95% and 98%; Oxygen saturation, group mean [1, 10]: 71.1%; Oxygen saturation, individual mouse [1, 10]: 70% and 68% and 71% (2×) and 80% and 73% and 64% and 75% and 62% and 77%; Oxygen saturation, group mean [1, 11]: 87.1%; Oxygen saturation, individual mouse [1, 11]: 86% (2×) and 88% (2×) and 89% (2×) and 92% and 81% and 82% and 90%; Oxygen saturation, group mean [1, 12]: 92.5%; Oxygen saturation, individual mouse [1, 12]: 92% (2×) and 90% (2×) and 94% and 97% and 95% and 88% and 91% and 96%; Oxygen saturation, group mean [1, 13]: 92.1%; Oxygen saturation, individual mouse [1, 13]: 96% (2×) and 94% and 88% and 86% and 93% (3×) and 92% and 90%; Oxygen saturation, group mean [1, 14]: 93.0%; Oxygen saturation, individual mouse [1, 14]: 91% (4×) and 92% (2×) and 97% (2×) and 94% (2×); Oxygen saturation, group mean [1, 15]: 97.2%; Oxygen saturation, individual mouse [1, 15]: 95% (3×) and 97% (3×) and 99% (4×); Oxygen saturation, group mean [1, 16]: 72.7%; Oxygen saturation, individual mouse [1, 16]: 69% and 81% and 72% (2×) and 73% and 79% (2×) and 65% and 66% and 71%; Oxygen saturation, group mean [1, 17]: 86.7%; Oxygen saturation, individual mouse [1, 17]: 86% (3×) and 90% and 88% (2×) and 87% (2×) and 85% and 84%; Oxygen saturation, group mean [1, 18]: 94.5%; Oxygen saturation, individual mouse [1, 18]: 93% and 89% and 94% (3×) and 95% and 96% (3×) and 98%; Oxygen saturation, group mean [1, 19]: 94.0%; Oxygen saturation, individual mouse [1, 19]: 93% (2×) and 94% and 95% (2×) and 90% and 99% and 92% (2×) and 97%; Oxygen saturation, group mean [1, 20]: 97.0%; Oxygen saturation, individual mouse [1, 20]: 93% and 95% and 98% (5×) and 99% and 97% and 96%; Oxygen saturation, group mean [1, 21]: 96.6%; Oxygen saturation, individual mouse [1, 21]: 97% (3×) and 94% (2×) and 96% and 99% (2×) and 98% and 95%; Oxygen saturation, group mean [1, 22]: 71.8%; Oxygen saturation, individual mouse [1, 22]: 63% and 71% and 69% and 92% and 73% and 75% and 72% and 76% and 66% and 61%; Oxygen saturation, group mean [1, 23]: 86.8%; Oxygen saturation, individual mouse [1, 23]: 88% (2×) and 90% and 84% and 89% and 86% (2×) and 85% (2×) and 87%; Oxygen saturation, group mean [1, 24]: 94.0%; Oxygen saturation, individual mouse [1, 24]: 92% and 94% (3×) and 90% and 93% and 95% (2×) and 96% and 97%; Oxygen saturation, group mean [1, 25]: 93.8%; Oxygen saturation, individual mouse [1, 25]: 90% and 91% (3×) and 93% (2×) and 98% (2×) and 99% and 94%; Oxygen saturation, group mean [1, 26]: 97.1%; Oxygen saturation, individual mouse [1, 26]: 99% (3×) and 97% (3×) and 91% and 98% (2×) and 96%; elevation in oxygen saturation levels as compared to LPS with no treatment [1, 27]: ≤ 20%; oxygen saturation levels that have been reduced by LPS [1, 27]: significantly increased; time following treatment at which increase in oxygen saturation is statistically significant ([1]; administration by inhalation, LPS model): 12 h; animal weight ([1]; throughout the experiment): substantially constant; blood counts and chemistry [2, 28]: comparable to the reference items; body weight [2, 28]: remained similar to that of the control group; mortality or abnormal signs of behavior [2, 28]: No mortality or abnormal signs of behavior; distribution of B cells, T cells, neutrophils, and macrophages in BALF ([2]; rats, 0.5, 1.0, and 2.5 mg intratracheally daily for 14 days, FACS): No changes; necroscopy and histology of the inspected organs ([2]; rats, day 15, brain, heart, thymus, lungs, spleen, liver, kidneys, gonads): no pathological changes; adverse effects in all parameters tested ([2]; rats, intratracheal, up to 2.5 mg daily for 14 days): did not result in any detectable adverse effects
